Data set [1] addresses T1, catecholamine-O-methyltransferase (COMT), human liver enzyme (Homo sapiens, UniProt P21964).
T1 construct: prepared from human liver; from tissue; host or cells: human liver, crude enzyme
T1 sequence (P21964 1-221 isoform P21964-2): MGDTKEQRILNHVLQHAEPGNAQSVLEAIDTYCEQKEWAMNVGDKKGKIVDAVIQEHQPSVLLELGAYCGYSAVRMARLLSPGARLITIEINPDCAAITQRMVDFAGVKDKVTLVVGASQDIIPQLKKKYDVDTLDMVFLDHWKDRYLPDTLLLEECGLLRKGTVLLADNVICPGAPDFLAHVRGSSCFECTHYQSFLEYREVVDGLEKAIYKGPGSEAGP
The experiment in a line: COMT inhibitory activity (O-methylation of 1,2-dihydroxybenzene with S-adenosyl-L-[methyl-3H]methionine, crude human liver enzyme). The data set is classed as biochemical. Conditions: COMT inhibition; crude enzyme from human liver (8.3 μg protein); pH 8.0; 37° C., 30 minutes; 100 μM 1,2-dihydroxybenzene. As for the experimental part: The assay mixture (120 μl) in a mini scintillation vial contained 68 mM K-PO4 buffer (pH 8.0), 10 mM MgCl2, 2.2 mM dithiothreitol, 7.8 U/ml adenosine deaminase, 5 mM EGTA, 100 μM 1,2-dihydroxybenzene, 183 μM S-adenosyl-L-[methyl-^3 H] […] Ci/mol, Amersham) and human liver enzyme. In the standard assay, 5 μl of inhibitor was added to the incubation mixture and the reaction was started with the supplementation of crude enzyme (8.3 μg protein) prepared from human liver. After incubation at 37° C. for 30 minutes, the reaction was stopped by immersion of the vials in ice water. 100 μl of 1M guaiacol HCl was added and the samples were extracted with 2 ml of a scintillation cocktail of hexane/toluene (4:1). The radioactivity of O^3 H-methylated products were measured by a liquid scintillation counter (LSC1100, Aloka).

The next data set can be described thus: Solubility. The data set is classed as physicochemical.
The nature of the next data set: Acute toxicity. The note with it: in vivo.

`CCCOC(=O)c1cc(O)c(O)c(O)c1` [Propyl gallate] came in with an IC50 in data set [1] of 455 nM.
Consider `COc1c(O)cc2cc(C(=O)O)cc(O)c(=O)c2c1O` [8-O-methylpurpurogallincarboxylic acid], for which the midpoint of inhibition in data set [1], the IC50, lay at 2230 nM. The Solubility entry in the data set “Solubility” (in Dimethylsulfoxide (DMSO)) is recorded as “Soluble”; in “Solubility” (in H2 O) it was “Slightly soluble”; in “Solubility” (in Methanol), “Soluble”. For the same compound, the Acute toxicity result in the data set “Acute toxicity” is recorded as “not observed”.
`O=c1cccccc1O` [Tropolone] registered a 50% inhibitory concentration (IC50) in data set [1] of 963000 nM.

The record behind these values is patent publication US5814512A, “Microorganism having all the identifying characteristics of absida ferm BP-4599 for producing purpurogallin derivatives” (Hoffmann-La Roche Inc., priority 1994, dated 1998).
